Reference: article PMC11295173 (Journal of the American Chemical Society, 2024)
Like-named read-outs stand apart in the source and are kept apart here. Ends that are not written are not given here.

Key:
Circular dichroism (CD) = type: physicochemical; details: bandwidth of 1 nm; buffer spectrum subtracted as blank
[1] = test system: RBDs from the S-proteins of the five VOCs; assay: Differential sensing of RBDs with S1-S20 (fluorescence, PCA, loading plots); type: binding, SARS-CoV-2; details: PCA and loading plots
RBDs = type: binding, SARS-CoV-2; details: peptide-GO complexes; RBDs 0 to 12 μg mL-1; PBS (0.01 M, pH 7.40); excitation 520 nm
[2] = type: binding; design: unit not given here; details: GO (1–15 µg mL−1); peptide probe 2 × 10−6 M; PBS (0.01 M, pH 7.4), 2 min, excitation 520 nm; double reciprocal linear fitting
[3] = type: binding; design: unit not given here; details: CNTs (1–8 µg mL−1); peptide probe 2 × 10−6 M; PBS (0.01 M, pH 7.4), 2 min, excitation 520 nm; double reciprocal linear fitting
[4] = type: binding; design: unit not given here; details: 2D MnO2 (1–12 µg mL−1); peptide probe 2 × 10−6 M; PBS (0.01 M, pH 7.4), 2 min, excitation 520 nm; double reciprocal linear fitting
[5] = type: binding; design: unit not given here; details: AuNPs (1–20 µg mL−1); peptide probe 2 × 10−6 M; PBS (0.01 M, pH 7.4), 2 min, excitation 520 nm; double reciprocal linear fitting

| Substance | secondary structure (CD spectra) (Circular dichroism (CD)) | contribution of peptide probes for VOC classification (order, loading plots) [1] | sensitivity of the peptide probes for the RBDs (order, from detection limits) (RBDs) | binding constant (Ka) [2] | binding constant (Ka) [3] | binding constant (Ka) [4] | binding constant (Ka) [5] |
| --- | --- | --- | --- | --- | --- | --- | --- |
| LL7: heptamer (residues 79–85) from α2-helix of hACE2 (LAQMYPL; UniProt Q9BYF1 79-85, looked up, fragment) | no typical signature of secondary structures |  |  |  |  |  |  |
| TQ19: fluorescently tagged (5-TAMRA) peptide probe, presumably of QQ19 (QAKTFLDKFNHEAEDLFYQ; also: 5-TAMRA label, site not given here; UniProt Q9BYF1 24-42, looked up, fragment) |  | TI26 > TQ26 > TQ19 > TL7 > TI7 | TI26 > TQ26 > TQ19 > TL7 > TI7 |  |  |  |  |
| GI7: heptamer (residues 352–358) from the β3 and β4-sheet of hACE2 (GKGDFRI; UniProt Q9BYF1 352-358, looked up, fragment) | no typical signature of secondary structures |  |  |  |  |  |  |
| TI7: fluorescently tagged (5-TAMRA) peptide probe, presumably of GI7 (GKGDFRI; also: 5-TAMRA label, site not given here; UniProt Q9BYF1 352-358, looked up, fragment) |  | TI26 > TQ26 > TQ19 > TL7 > TI7 | TI26 > TQ26 > TQ19 > TL7 > TI7 | 0.0273 | 0.1462 | 0.1024 | 0.0153 |
| QQ19: continuous 19-mer (amino-acid residues 24–42) truncated from the α1-helix of hACE2 (QAKTFLDKFNHEAEDLFYQ; UniProt Q9BYF1 24-42, looked up, fragment) | two minima at 202 and 222 nm, characteristic of α-helices |  |  |  |  |  |  |
| TL7: fluorescently tagged (5-TAMRA) peptide probe, presumably of LL7 (LAQMYPL; also: 5-TAMRA label, site not given here; UniProt Q9BYF1 79-85, looked up, fragment) |  | TI26 > TQ26 > TQ19 > TL7 > TI7 | TI26 > TQ26 > TQ19 > TL7 > TI7 | 0.0319 | 0.0776 | 0.0096 | 0.0249 |
